Results from ChEMBL document CHEMBL1127128, “CGS 27830, a potent nonpeptide endothelin receptor antagonist” (Bioorg Med Chem Lett, 1993).

Tests used:
Endothelin-1 receptor [1] = target: T1, Endothelin-1 receptor (Sus scrofa, UniProt Q29010); experiment: Tested for its inhibitory activity against Endothelin A receptor
T1 sequence (Q29010 whole entry): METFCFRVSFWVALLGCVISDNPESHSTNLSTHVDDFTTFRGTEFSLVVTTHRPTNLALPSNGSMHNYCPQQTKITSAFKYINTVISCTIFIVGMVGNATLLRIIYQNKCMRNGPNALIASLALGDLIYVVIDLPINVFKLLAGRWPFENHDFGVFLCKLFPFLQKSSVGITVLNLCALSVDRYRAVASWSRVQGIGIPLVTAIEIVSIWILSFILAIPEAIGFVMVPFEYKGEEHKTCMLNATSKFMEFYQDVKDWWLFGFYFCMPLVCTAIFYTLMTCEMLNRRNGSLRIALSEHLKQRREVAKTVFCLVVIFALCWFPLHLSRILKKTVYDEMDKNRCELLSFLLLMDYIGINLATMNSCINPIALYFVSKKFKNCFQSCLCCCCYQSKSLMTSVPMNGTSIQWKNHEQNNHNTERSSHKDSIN

[2] = target: T2, Endothelin receptor type B (Rattus norvegicus, UniProt P21451); experiment: Tested for its inhibitory activity against Endothelin B receptor
T2 sequence (P21451 whole entry): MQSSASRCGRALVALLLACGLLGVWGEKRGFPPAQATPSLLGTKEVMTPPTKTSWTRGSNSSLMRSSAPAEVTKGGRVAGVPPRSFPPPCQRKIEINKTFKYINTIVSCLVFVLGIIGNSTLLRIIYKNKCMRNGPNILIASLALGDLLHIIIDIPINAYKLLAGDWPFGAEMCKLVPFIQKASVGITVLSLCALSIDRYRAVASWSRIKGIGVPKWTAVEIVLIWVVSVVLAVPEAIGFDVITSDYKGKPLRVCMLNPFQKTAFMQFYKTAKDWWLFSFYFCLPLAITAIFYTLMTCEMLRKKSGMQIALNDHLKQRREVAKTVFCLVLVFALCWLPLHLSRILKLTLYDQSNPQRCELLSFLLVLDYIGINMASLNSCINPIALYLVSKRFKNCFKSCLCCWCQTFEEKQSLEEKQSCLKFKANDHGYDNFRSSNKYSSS

Endothelin-1 receptor [3] = target: T1, Endothelin-1 receptor; experiment: Tested for its inhibitory activity against Endothelin A receptor; inactive
[4] = target: T2, Endothelin receptor type B; experiment: Tested for its inhibitory activity against Endothelin B receptor; Compound was inactive
Oryctolagus cuniculus [5] = species: Oryctolagus cuniculus; experiment: Tested for inhibition of ET-1 induced contractile response in isolated rabbit aorta at the concentration of 1 uM; assay type: functional
Oryctolagus cuniculus [6] = species: Oryctolagus cuniculus; experiment: Tested for inhibition of ET-1 induced contractile response in isolated rabbit aorta at the concentration of 0.1 uM; assay type: functional
Rattus norvegicus [7] = experiment: Tested for the dose at which depressor response attenuated by intravenous administration in conscious rat; assay type: functional
[8] = target: T2, Endothelin receptor type B; experiment: Tested for its ability to inhibit the binding of [125I]ET1 to the Endothelin B receptor in rat cerebellum membranes.; assay type: cell membranes, Membrane
[9] = The half-life period was reported.; assay type: ADME
[10] = target: Voltage-gated L-type calcium channel (Rattus norvegicus, UniProt P22002+Q02485+P27732); experiment: Inhibition of [3H]PN-200-110 binding to L-type calcium channels in rat cortex membranes.; assay type: cell membranes, Membrane
Oryctolagus cuniculus [11] = species: Oryctolagus cuniculus; experiment: Tested for inhibition of ET-1 induced contractile response in isolated rabbit aorta at the concentration of 10 uM; assay type: functional
Rattus norvegicus [12] = experiment: Tested for the dose at which pressor response abolished by intravenous administration; assay type: functional
Endothelin-1 receptor [13] = target: T1, Endothelin-1 receptor; experiment: Tested for its ability to inhibit the binding of [125I]ET1 to the Endothelin A receptor in porcine thoracic aorta membranes.; assay type: cell membranes
[14] = Tested for inhibition of ET-1 induced phosphoinositide (PI) turnover in A7r5 smooth muscle cells; assay type: functional, cell-based; conditions: Rattus norvegicus

## COC(=O)C1=C(C)N=C(C)/C(=C(/O)OC(=O)C2=C(C)N=C(C)/C(=C(/O)OC)[C@@H]2c2cccc([N+](=O)[O-])c2)[C@H]1c1cccc([N+](=O)[O-])c1
Endothelin-1 receptor [1]
  IC50: 0.422 µM
[2]
  IC50: 2.7 µM

## COC(=O)C1=C(C)N=C(C)/C(=C(/O)OC(=O)C2=C(C)N=C(C)/C(=C(/O)OC)[C@H]2c2cccc([N+](=O)[O-])c2)[C@@H]1c1cccc([N+](=O)[O-])c1
Endothelin-1 receptor [3]
  IC50: Not Active
[4]
  IC50: Not Active

## COC(=O)C1=C(C)N=C(C)/C(=C(/O)OC(=O)C2=C(C)N=C(C)/C(=C(/O)OC)[C@@H]2c2cccc([N+](=O)[O-])c2)[C@@H]1c1cccc([N+](=O)[O-])c1
Oryctolagus cuniculus [5]
  inhibition at 1 µM: 42%
Oryctolagus cuniculus [6]
  inhibition at 0.1 µM: 33%
Rattus norvegicus [7]
  Dose: 0.25 nM/kg
[8]
  IC50: 0.295 µM
[9]
  half-life: < 1 h
[10]
  IC50: 0.592 µM
Oryctolagus cuniculus [11]
  inhibition at 10 µM: 77%
Rattus norvegicus [12]
  Dose: 10 mg/kg
Endothelin-1 receptor [13]
  IC50: 0.0159 µM
[14]
  EC50: 0.143 µM
